Results: ChEMBL document CHEMBL3431459, “Roche carnitine palmitoyltransferase modulator screening data (supplementary data associated with the publication CHEMBL2216752)”
≈ marks a conversion by molar mass, not a printed value.

Columns and labels:
[1] = SUPPLEMENTARY: PAMPA permeability assay; assay type: physicochemical; settings: read-out: Permeability
[2] = SUPPLEMENTARY: Lipophilicity (log D) Determination by high-throughput shake-flask; assay type: physicochemical; settings: octanol/water
[3] = SUPPLEMENTARY: Lyophilisation Solubility Assay (LYSA); assay type: physicochemical; settings: read-out: Kinetic_solubility
[4] = molecular target: T1, Carnitine O-palmitoyltransferase 2, mitochondrial (Homo sapiens, UniProt P23786); experiment: (§1) SUPPLEMENTARY: Inhibition of Carnitine palmitoyltransferase 2
T1 sequence (P23786 whole entry): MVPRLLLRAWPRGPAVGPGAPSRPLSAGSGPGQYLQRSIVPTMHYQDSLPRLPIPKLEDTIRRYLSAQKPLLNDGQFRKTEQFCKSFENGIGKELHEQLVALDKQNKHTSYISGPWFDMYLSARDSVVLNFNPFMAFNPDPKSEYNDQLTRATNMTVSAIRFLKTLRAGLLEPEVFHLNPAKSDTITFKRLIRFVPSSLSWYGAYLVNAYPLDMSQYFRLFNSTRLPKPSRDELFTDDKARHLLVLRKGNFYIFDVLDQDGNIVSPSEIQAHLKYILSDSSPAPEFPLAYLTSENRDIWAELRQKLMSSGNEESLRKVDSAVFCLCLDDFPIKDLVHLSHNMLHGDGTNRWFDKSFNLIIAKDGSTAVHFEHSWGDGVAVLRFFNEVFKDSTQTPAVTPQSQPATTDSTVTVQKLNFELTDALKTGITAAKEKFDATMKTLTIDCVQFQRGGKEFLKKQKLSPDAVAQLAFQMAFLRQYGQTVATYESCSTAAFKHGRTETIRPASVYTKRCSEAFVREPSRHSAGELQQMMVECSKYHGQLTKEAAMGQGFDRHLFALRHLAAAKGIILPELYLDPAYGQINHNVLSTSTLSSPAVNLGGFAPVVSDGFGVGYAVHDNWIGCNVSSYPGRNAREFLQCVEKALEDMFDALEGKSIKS

[5] = molecular target: T2, Carnitine O-palmitoyltransferase 1, muscle isoform (Homo sapiens, UniProt Q92523); experiment: SUPPLEMENTARY: Inhibition of Carnitine palmitoyltransferase 1, muscle isoform; design: species or system Muscle tissue
T2 sequence (Q92523 whole entry): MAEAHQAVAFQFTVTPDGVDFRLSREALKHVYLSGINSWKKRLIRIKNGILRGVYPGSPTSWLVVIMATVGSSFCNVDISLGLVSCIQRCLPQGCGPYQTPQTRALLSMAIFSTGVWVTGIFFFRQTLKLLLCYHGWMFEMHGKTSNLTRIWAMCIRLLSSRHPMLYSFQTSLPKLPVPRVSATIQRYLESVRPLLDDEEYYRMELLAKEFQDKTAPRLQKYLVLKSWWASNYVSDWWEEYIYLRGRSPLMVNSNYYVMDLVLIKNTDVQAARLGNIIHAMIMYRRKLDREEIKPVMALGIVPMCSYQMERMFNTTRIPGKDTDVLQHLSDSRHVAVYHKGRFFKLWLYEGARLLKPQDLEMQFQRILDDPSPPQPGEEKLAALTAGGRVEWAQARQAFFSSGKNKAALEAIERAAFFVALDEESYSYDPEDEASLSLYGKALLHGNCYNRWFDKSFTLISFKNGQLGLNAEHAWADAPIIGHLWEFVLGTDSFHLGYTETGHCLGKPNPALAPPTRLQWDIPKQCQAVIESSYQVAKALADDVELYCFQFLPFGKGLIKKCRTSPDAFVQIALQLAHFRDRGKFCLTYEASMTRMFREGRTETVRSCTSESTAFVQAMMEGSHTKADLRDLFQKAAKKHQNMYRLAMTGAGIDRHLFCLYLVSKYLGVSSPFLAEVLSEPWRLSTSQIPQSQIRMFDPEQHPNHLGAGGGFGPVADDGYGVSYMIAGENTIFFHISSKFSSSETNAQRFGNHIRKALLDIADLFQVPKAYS

[6] = molecular target: T3, Carnitine O-palmitoyltransferase 1, liver isoform (Rattus norvegicus, UniProt P32198); experiment: (§2) SUPPLEMENTARY: Inhibition of Carnitine palmitoyltransferase 1, liver isoform
T3 sequence (P32198 whole entry): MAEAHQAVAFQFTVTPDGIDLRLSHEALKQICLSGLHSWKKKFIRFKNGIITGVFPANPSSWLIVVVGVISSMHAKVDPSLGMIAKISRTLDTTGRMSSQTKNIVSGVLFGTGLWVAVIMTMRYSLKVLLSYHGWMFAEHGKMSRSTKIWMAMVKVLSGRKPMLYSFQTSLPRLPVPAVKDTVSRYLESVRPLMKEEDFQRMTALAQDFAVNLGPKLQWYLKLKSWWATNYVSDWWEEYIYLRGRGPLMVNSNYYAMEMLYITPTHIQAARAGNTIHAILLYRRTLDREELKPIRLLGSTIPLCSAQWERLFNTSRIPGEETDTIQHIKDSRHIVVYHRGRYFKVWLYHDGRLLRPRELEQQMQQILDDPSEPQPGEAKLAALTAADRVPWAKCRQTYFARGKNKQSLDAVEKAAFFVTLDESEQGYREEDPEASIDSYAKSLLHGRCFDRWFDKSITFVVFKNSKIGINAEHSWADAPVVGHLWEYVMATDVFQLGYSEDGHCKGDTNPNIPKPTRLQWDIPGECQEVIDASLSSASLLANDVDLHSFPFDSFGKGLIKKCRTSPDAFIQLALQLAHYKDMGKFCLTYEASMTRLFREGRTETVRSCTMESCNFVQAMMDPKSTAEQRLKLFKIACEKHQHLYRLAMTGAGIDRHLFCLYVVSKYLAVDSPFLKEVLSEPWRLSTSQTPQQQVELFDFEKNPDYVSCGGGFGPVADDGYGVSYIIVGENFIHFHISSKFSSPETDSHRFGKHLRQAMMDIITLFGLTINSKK

[7] = molecular target: T4, Carnitine O-palmitoyltransferase 1, liver isoform (Homo sapiens, UniProt P50416); experiment: as §2
T4 sequence (P50416 whole entry): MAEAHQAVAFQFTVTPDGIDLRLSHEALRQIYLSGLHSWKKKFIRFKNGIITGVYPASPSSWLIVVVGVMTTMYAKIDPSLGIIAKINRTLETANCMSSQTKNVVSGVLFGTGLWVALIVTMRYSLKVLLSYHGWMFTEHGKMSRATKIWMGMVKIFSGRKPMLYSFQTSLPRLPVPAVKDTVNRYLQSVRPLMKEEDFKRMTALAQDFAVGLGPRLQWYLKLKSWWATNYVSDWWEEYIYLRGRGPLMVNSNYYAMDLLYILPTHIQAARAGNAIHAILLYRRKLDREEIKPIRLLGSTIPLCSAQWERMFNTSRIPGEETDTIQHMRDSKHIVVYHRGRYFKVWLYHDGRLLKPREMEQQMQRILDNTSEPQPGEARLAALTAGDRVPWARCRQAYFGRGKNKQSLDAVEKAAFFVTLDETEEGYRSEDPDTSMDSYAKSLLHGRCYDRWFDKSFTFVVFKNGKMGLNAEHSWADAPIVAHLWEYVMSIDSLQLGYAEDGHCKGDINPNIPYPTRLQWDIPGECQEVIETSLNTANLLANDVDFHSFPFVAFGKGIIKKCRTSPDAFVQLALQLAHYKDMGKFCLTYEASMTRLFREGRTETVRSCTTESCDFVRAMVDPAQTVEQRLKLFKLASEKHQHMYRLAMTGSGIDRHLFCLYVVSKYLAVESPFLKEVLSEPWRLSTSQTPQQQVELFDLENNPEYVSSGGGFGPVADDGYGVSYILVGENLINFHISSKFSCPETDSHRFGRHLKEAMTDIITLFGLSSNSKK

[8] = molecular target: T5, Carnitine O-palmitoyltransferase 2, mitochondrial (Rattus norvegicus, UniProt P18886); experiment: as §1
T5 sequence (P18886 whole entry): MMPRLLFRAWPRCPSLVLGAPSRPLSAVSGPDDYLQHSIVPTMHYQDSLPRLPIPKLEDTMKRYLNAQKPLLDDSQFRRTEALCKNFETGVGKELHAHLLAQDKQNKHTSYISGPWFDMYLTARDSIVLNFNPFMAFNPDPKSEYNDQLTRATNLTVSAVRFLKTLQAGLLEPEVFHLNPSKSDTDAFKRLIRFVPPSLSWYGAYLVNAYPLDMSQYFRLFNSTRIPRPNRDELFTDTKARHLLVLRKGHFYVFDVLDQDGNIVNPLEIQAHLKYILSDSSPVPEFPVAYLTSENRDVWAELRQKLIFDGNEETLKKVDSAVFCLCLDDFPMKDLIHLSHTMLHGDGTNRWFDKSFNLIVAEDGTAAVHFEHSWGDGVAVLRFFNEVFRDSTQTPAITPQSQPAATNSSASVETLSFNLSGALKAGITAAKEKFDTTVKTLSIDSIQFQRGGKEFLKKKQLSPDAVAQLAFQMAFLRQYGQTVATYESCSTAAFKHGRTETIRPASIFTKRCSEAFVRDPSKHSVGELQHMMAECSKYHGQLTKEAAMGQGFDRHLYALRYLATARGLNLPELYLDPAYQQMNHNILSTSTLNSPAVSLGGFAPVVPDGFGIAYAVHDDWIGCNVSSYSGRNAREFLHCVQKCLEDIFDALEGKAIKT

Compound | Papp [1] | logD [2] | solubility kinetic [3] | IC50 [4] | IC50 [5] | IC50 [6] | IC50 [7] | IC50 [8]
COc1ccc(Cl)cc1S(=O)(=O)N1CCCCc2ccc(C(=O)Nc3ccc(C(=O)O)cc3)cc21 | 2.9 ×10⁻⁶ cm/s | 1.5 | 211 µg/mL (≈ 410 µM) | 17.6 µM | 14.5 µM | 0.181 µM | 0.289 µM | 
O=C(COc1ccccc1)N1CCCC[C@@H]1c1nc(-c2cccc(O)c2)no1 | 0.65 ×10⁻⁶ cm/s | 3.24 | 7 µg/mL (≈ 18.4 µM) | > 100 µM | > 100 µM | 0.0979 µM | 0.0364 µM | 
O=C(COc1ccccc1)N1CCCC[C@@H]1c1nc(-c2cccc(-c3n[nH]c(=O)o3)c2)n[nH]1 | 1.7 ×10⁻⁶ cm/s | 2.42 | 24 µg/mL (≈ 53.8 µM) | 34 µM | > 100 µM | 0.367 µM | 0.115 µM | 
O=C(COc1ccccc1)N1CCCC[C@@H]1c1nc(-c2cccnc2)cs1 | 3.8 ×10⁻⁶ cm/s | 3.15 | 37 µg/mL (≈ 97.5 µM) | 16.7 µM | 71.5 µM | 0.214 µM |  | 32.8 µM
O=C(O)c1ccc(-c2csc([C@H]3CCCCN3C(=O)COc3ccccc3)n2)cc1 | 5.18 ×10⁻⁶ cm/s | 1.09 | > 563 µg/mL | 10.6 µM | 29 µM | 0.496 µM |  | 42.1 µM
CS(=O)(=O)c1ccc(-c2csc([C@H]3CCCCN3C(=O)COc3ccccc3)n2)cc1 | 2.11 ×10⁻⁶ cm/s | > 3 | 1 µg/mL (≈ 2.19 µM) | 1.86 µM | 6.12 µM | 0.327 µM |  | > 100 µM
O=C(COc1ccccc1)N1CCCC[C@@H]1c1nc(-c2ccc(Cl)nc2)cs1 | 1.25 ×10⁻⁶ cm/s | > 3 | 1 µg/mL (≈ 2.42 µM) | 62.1 µM | > 100 µM | 0.305 µM |  | > 100 µM
O=C(O)c1cccc(-c2nc([C@H]3CCCCN3C(=O)COc3ccccc3)cs2)c1 | 2.35 ×10⁻⁶ cm/s | 0.92 | > 511 µg/mL | 23 µM | 95.9 µM | 0.529 µM |  | > 100 µM
COc1ccc(Cl)cc1S(=O)(=O)N1CCc2c(C)cc(C(=O)Nc3ccc(CC(=O)O)cc3)cc21 | 3.07 ×10⁻⁶ cm/s | 0.62 | 37 µg/mL (≈ 71.8 µM) | 98.4 µM | 0.447 µM | 0.238 µM |  | > 100 µM
O=C(COc1ccccc1)N1CCCC[C@@H]1c1csc(-c2ccc(C(F)(F)F)nc2)n1 | 1.31 ×10⁻⁶ cm/s | > 3 | < 1 µg/mL | > 100 µM | > 100 µM | 0.985 µM |  | > 100 µM
O=C(O)Cc1ccc(NC(=O)c2ccc3c(c2)N(S(=O)(=O)c2cccc(Cl)c2)CC3)cc1 | 3.65 ×10⁻⁶ cm/s | 0.48 | 20 µg/mL (≈ 42.5 µM) | > 100 µM | 4.5 µM | 0.0798 µM |  | > 100 µM
CC(=O)Nc1ccc(-c2nc([C@H]3CCCCN3C(=O)COc3ccccc3)cs2)cc1 | 1.23 ×10⁻⁶ cm/s | 3.72 | 1 µg/mL (≈ 2.3 µM) | > 100 µM | > 100 µM | 0.179 µM |  | > 100 µM
